Measured values published in paper PMC9894226 (Proceedings of the National Academy of Sciences of the …, 2022).
Non-standard residues stand in square brackets, D forms with d. Residues, ends and D or L forms follow the SMILES beside them. Nle = CCCC[C@H](N)C(=O)O

How the values were obtained:
[1] = pH 7.4; ref [67]; cited from earlier work
[2] = tested on: C. elegans CL2355; assay: Chemotaxis assay in transgenic C. elegans; assay type: in vivo, Caenorhabditis elegans; conditions: fed 0.5, 5 and 50 μM; untreated CL2355 0.18 ± 0.01, CL2122 0.29 ± 0.01
[3] = tested on: 5xFAD mice; assay: PET/CT imaging in 5xFAD mice; assay type: in vivo, mouse; conditions: 6-mo-old 5xFAD mice, 1 h post injection

| Compound | Chemotaxis index (CI) of CL2355 mutants [2] | other results |
| --- | --- | --- |
| O=C(O)CN1CCN(CC(=O)O)CCN(CC(=O)O)CC1 [NOTA, 2,2′,2”-(1,4,7-triazacyclononane-1,4,7-triyl)triacetic acid] | – | Thermodynamic stability constant of Cu^2+ complex (log KML) [1]: 23.33 |
| CCCC[C@@H]1NC(=O)[C@@H](CC(C)C)NC(=O)[C@H](CCCCN)NC(=O)[C@@H](CO)NC(=O)[C@H](Cc2c[nH]cn2)NC(=O)[C@@H](C)NC1=O [[w4a]-1, c-(D-Leu-Nle-D-Ala-His-D-Ser-Lys)] (cyclo(H[dS]K[dL][Nle][dA])) | significantly less protective than peptide 1 | – |
| [11CH3]Nc1ccc(-c2nc3ccc(O)cc3s2)cc1 [^11C-PIB, ^11C-Pittsburgh compound B] | – | Hippocampal uptake (PET) [3]: 1.038 ± 0.028 %ID/g |
| H-[dL][Nle][dW]H[dS]K-OH [Lin-1] | significantly less protective than peptide 1 | – |
